A word on the IC50: it is the concentration needed to halve the response being measured.

The values that follow come from patent publication US8158621B2, “Methods of treating or preventing autoimmune diseases with 2,4-pyrimidinediamine compounds” (Rigel Pharmaceuticals, Inc., priority 2002, dated 2012).

One assay has as its system Human Jurkat T-cells (clone N). Description: Jurkat T-cell activation (anti-TCR, CD69 upregulation). The format is cell-based.
Details: not given
The method, boiled down: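 Jurkat cells in RPMI + 5% FBS preincubated with compound 1 h at 37 °C, then stimulated with anti-TCR C305 at 500 ng/ml for 20 h. CD69 surface expression stained with anti-CD69-APC and read by flow cytometry; IC50 versus solvent-only control.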
In turn, `CNC(=O)COc1cccc(Nc2ncc(F)c(Nc3cccc(C(=NO)c4ccccc4)c3)n2)c1` [Compound R950374] had an IC50 of 1.65 µM.
As to `O=C(O)c1cnc(Nc2cccc(O)c2)nc1NC(C(=O)O)c1ccccc1` (stereo not shown) [Compound R926535], the IC50 was greater than 10 µM.
On the same count and under the same terms, the value for `CNC(=O)COc1ccc(Nc2ncc(F)c(Nc3ccc(C(C)(C)C)cc3)n2)cc1` [Compound R926712] was 6.35 µM; that for `CCOC(=O)COc1cccc(Nc2ncc(F)c(Nc3cc(Cl)c(O)c(Cl)c3)n2)c1` [Compound R950185] was greater than 10 µM.
In the case of `Oc1cccc(Nc2nc(Nc3ccc(OCCN4CCOCC4)cc3)ncc2F)c1` [Compound R926699], inhibition was half-maximal at 1.86 µM (IC50).
Same read-out and setting: the value for `O=[N+]([O-])c1cccc(Nc2nc(Nc3ccc4c(c3)NCCO4)ncc2F)c1` [Compound R950253] was 10.5 µM; that for `CNC(=O)COc1cccc(Nc2ncc(F)c(Nc3ccc4c(c3)OCCO4)n2)c1` [Compound R926826] was 3.73 µM.
Regarding `Fc1cnc(NCc2ccc3c(c2)OCO3)nc1NCc1ccc2c(c1)OCO2` [Compound R925770], the IC50 was greater than 10 µM.
Still for that read-out and setting: the value for `O=C(COc1cccc(Nc2ncc(F)c(Nc3cccc(O)c3)n2)c1)NCC(O)CO` (stereo not shown) [Compound R926746] was 3.7 µM; that for `Oc1cccc(Nc2ncc(F)c(Nc3ccc(OCc4nc(-c5ccccc5)no4)cc3)n2)c1` [Compound R935138] was 0.46 µM; that for `COC(=O)COc1cccc(Nc2ncc(F)c(Nc3ccc4[nH]ncc4c3)n2)c1` [Compound R935269] was 7.58 µM.
`COC(=O)COc1cccc(Nc2ncc(F)c(Nc3cc(C)c(OC)c(C)c3)n2)c1` [Compound R945153] had an IC50 of 9.74 µM.
The same measure, in the same setting: the value for `CCOC(=O)C(C)(C)Oc1cccc(Nc2ncc(F)c(Nc3ccc4cc[nH]c4c3)n2)c1` [Compound R926909] was 4.65 µM; that for `CC(C)(CO)NC(=O)COc1cccc(Nc2ncc(F)c(Nc3ccc4c(c3)OCCO4)n2)c1` [Compound R926764] was 2.17 µM; that for `CC(C)(C)c1cccc(Nc2nc(Nc3cccc(OCC(=O)O)c3)ncc2F)c1` [Compound R940280] was greater than 10 µM.
`Fc1cnc(Nc2ccc3c(c2)OCCCO3)nc1Nc1ccc2c(c1)OCCCO2` [Compound R935162] came in with an IC50 of 3.38 µM.
The same measure, in the same setting: to `CNC(=O)COc1cccc(Nc2ncc(F)c(Nc3cc(OC)c(Cl)cc3OC)n2)c1` [Compound R926859] belongs greater than 10 µM.
`COC(=O)Cn1ncc2ccc(Nc3nc(Nc4cccc(O)c4)ncc3F)cc21` [Compound R935220] yielded an IC50 of 8.07 µM.
Still for that read-out and setting: the value for `COC(=O)COc1ccc(Nc2ncc(F)c(Nc3ccc(OC(C)C)cc3)n2)cc1` [Compound R935159] was greater than 10 µM; that for `CNCCNC(=O)CNc1cccc(Nc2ncc(F)c(Nc3cccc(NCCO)c3)n2)c1` [Compound R950234] was greater than 10 µM; that for `CCOC(=O)C(C)(C)c1ccc(Nc2nc(Nc3cccc(O)c3)ncc2F)cc1` [Compound R935169] was 7.54 µM.
`CNC(=O)COc1cccc(Nc2ncc(F)c(Nc3ccc4c(c3)OCCO4)n2)c1` [Compound R926816] displayed an IC50 of 0.739 µM.
Same read-out and setting: to `CNC(=O)COc1cccc(Nc2ncc(F)c(Nc3cnc4c(c3)OC(C)(C)C(=O)N4)n2)c1` [Compound R940345] belongs 5.4 µM; to `CNC(=O)COc1cccc(Nc2ncc(F)c(Nc3ccc4c(c3)OCC(=O)N4C)n2)c1` [Compound R909261], 2.94 µM; to `CNC(=O)COc1cccc(Nc2ncc(F)c(Nc3ccc(OC)c(C(F)(F)F)c3)n2)c1` [Compound R926835], 3.58 µM.
Still for that read-out and setting: the value for `CCOC(=O)COc1ccc(Nc2ncc(F)c(Nc3ccc4c(c3)OCCO4)n2)cn1` [Compound R926740] was greater than 10 µM.
The same measure, in the same setting: to `OCCNc1cccc(Nc2ncc(F)c(Nc3ccc4c(c3)OCCO4)n2)c1` [Compound R950208] belongs 1.77 µM.
`CNC(=O)COc1cccc(Nc2ncc(F)c(Nc3ccc4[nH]ccc4c3)n2)c1` [Compound R926931] displayed an IC50 of 2.93 µM.
Turning to `CC(C)(C)c1cccc(Nc2nc(Nc3cccc(OCC(=O)NC(CO)CO)c3)ncc2F)c1` [Compound R940296], it took 1.23 µM to reach half-maximal inhibition (IC50).
Same read-out and setting: to `COC(=O)c1ccc(Cn2ncc3ccc(Nc4ncc(F)c(Nc5cccc(O)c5)n4)cc32)c(OC)c1` [Compound R935321] belongs greater than 10 µM; to `CC(C)Oc1ccc(Nc2nc(Nc3ccc4oc(C(=O)N5CCCC5)cc4c3)ncc2F)cc1` [Compound R926703], 7.87 µM; to `CCOC(=O)C(C)(C)c1ccc(Nc2ncc(F)c(Nc3ccc(OC(C)C)cc3)n2)cc1` [Compound R935150], 20.4 µM.
For the compound `COc1cc(C(=O)NS(=O)(=O)c2ccccc2C)ccc1Cn1ncc2cc(Nc3ncc(F)c(Nc4ccc5c(c4)OCCO5)n3)ccc21` [Compound R935339], the IC50 was greater than 10 µM.
Same read-out and setting: the value for `CC(C)Oc1ccc(Nc2ncc(F)c(Nc3ccc4[nH]ncc4c3)n2)cc1` [Compound R935266] was greater than 10 µM.
The same measure, in the same setting: the value for `CNC(=O)COc1cccc(Nc2ncc(F)c(Nc3cccc(-c4nn[nH]n4)c3)n2)c1` [Compound R926855] was greater than 10 µM; that for `COC(=O)c1cc2cc(Nc3ncc(F)c(Nc4ccc5c(c4)C(=O)OC5)n3)ccc2o1` [Compound R940294] was greater than 10 µM; that for `N#CCOc1ccc(Nc2nc(Nc3ccc4c(c3)OCCO4)ncc2F)cc1` [Compound R945172] was 3.13 µM.
Compound `CNC(=O)COc1cccc(Nc2ncc(F)c(Nc3ccc4[nH]ncc4c3)n2)c1` [Compound R935279] gave an IC50 of 1.98 µM.
Regarding `COC(=O)c1cc2cc(Nc3ncc(F)c(Nc4ccc5cnn(CCC(=O)O)c5c4)n3)ccc2o1` [Compound R935296], the IC50 was greater than 10 µM.
Still for that read-out and setting: the value for `COC(=O)c1cc2cc(Nc3nc(Nc4cccc(OCc5noc(C)n5)c4)ncc3F)ccc2o1` [Compound R945131] was 19.2 µM.
Compound `CNC(=O)COc1cccc(Nc2ncc(F)c(Nc3cccc(C(C)=O)c3)n2)c1` [Compound R950371] displayed an IC50 of 1.1 µM.
Still for that read-out and setting: to `CC(C)(C)c1ccc(Nc2nc(Nc3cccc(OCC(=O)O)c3)ncc2F)cc1` [Compound R926726] belongs greater than 10 µM; to `OCCOc1ccc(Nc2ncc(F)c(Nc3ccc4c(c3)OCCCO4)n2)cc1` [Compound R935183], 2.27 µM; to `CCOC(=O)COc1ccc(Nc2nc(Nc3ccc(OCC(=O)OCC)cc3)c(NC(=O)NC3CCCC3)c(C(=O)OCC)n2)cc1` [Compound R926588], greater than 10 µM.

Still in this assay, the particulars now being: Homo sapiens.
As for `O=[N+]([O-])c1cc(Nc2ccnc(Nc3ccc(Cl)c([N+](=O)[O-])c3)n2)ccc1Cl` [Compound R950154], the IC50 is greater than 10 µM.

The assay is the same for the next values; noted with them: Homo sapiens, Jurkat.
Compound `c1cc(Nc2ccc3c(c2)OCCO3)nc(Nc2ccc3c(c2)OCCO3)n1` [Compound R926243] yielded an IC50 of 2.99 µM.
`Fc1cnc(Nc2ccc3c(c2)OCO3)nc1Nc1ccc2c(c1)OCO2` [Compound R925776]: the IC50 was found to be 17.1 µM.
For `CNC(=O)c1cc2cc(Nc3ncc(F)c(Nc4cccc(C(C)(C)C)c4)n3)ccc2o1` [Compound R940291], the IC50 came out at 9.45 µM.
Still for that read-out and setting: the value for `Oc1cccc(Nc2nc(NCCc3c[nH]c4ccccc34)ncc2F)c1` [Compound R945117] was greater than 10 µM; that for `CCOC(=O)c1cc2cc(Nc3ncc(F)c(Nc4cccc(O)c4)n3)ccc2[nH]1` [Compound R926615] was 1.87 µM.
The same measure, in the same setting: to `Cc1noc(C)c1Nc1ncc(F)c(Nc2ccc3c(c2)OCCO3)n1` [Compound R926744] belongs greater than 10 µM; to `Oc1ccc(CCNc2ncc(F)c(NCCc3ccc(O)cc3)n2)cc1` [Compound R925791], greater than 10 µM.
The same measure, in the same setting: the value for `Cc1cc(CNc2ncc(F)c(Nc3cccc(O)c3)n2)c(C)o1` [Compound R945162] was greater than 10 µM; that for `O=C(O)C1CCC(Nc2nc(Nc3ccc4c(c3)OCCO4)ncc2F)CC1` (stereo not shown) [Compound R925795] was greater than 10 µM.
`Oc1cccc(Nc2nc(NCCN3CCN(Cc4ccccc4)CC3)ncc2F)c1` [Compound R940261] yielded an IC50 of 10.9 µM.
On the same count and under the same terms, to `COc1ccc(Nc2nc(Nc3cccc(O)c3)ncc2F)cc1Cl` [Compound R926945] belongs 4.24 µM.
Compound `Oc1cccc(Nc2nc(NCC3COc4ccccc4O3)ncc2F)c1` (stereo not shown) [Compound R950214] had a half-maximal inhibitory concentration (IC50) greater than 10 µM.
In the case of `CCOC(=O)C1CCN(C(=O)c2cccc(Nc3ncc(F)c(Nc4ccc5cc[nH]c5c4)n3)c2)CC1` [Compound R926935], it took 11.8 µM to reach half-maximal inhibition (IC50).
The compound `N#Cc1cnc(Nc2cccc(O)c2)nc1Nc1cccc(O)c1` [Compound R925774] came in with an IC50 of 7.5 µM.
The same measure, in the same setting: the value for `Oc1cccc(Nc2ncc(F)c(Nc3ccc4ncccc4c3)n2)c1` [Compound R927019] was greater than 10 µM; that for `CC(C)Oc1ccc(Nc2nc(Nc3ccc(C(C)(C)CO)cc3)ncc2F)cc1` [Compound R935151] was 1.96 µM.
Still for that read-out and setting: the value for `OB(O)c1cccc(Nc2nc(Nc3cccc(O)c3)ncc2F)c1` [Compound R926755] was 7.36 µM; that for `COC(=O)c1cc(Nc2ncc(F)c(Nc3ccc(O)c(C(=O)OC)c3)n2)ccc1O` [Compound R945043] was greater than 10 µM; that for `COCCNc1ncc(F)c(Nc2ccc3c(c2)OCCO3)n1` [Compound R926229] was greater than 10 µM.
Still for that read-out and setting: the value for `O=c1ccc2cc(Nc3ncc(F)c(Nc4ccc5oc(=O)ccc5c4)n3)ccc2o1` [Compound R926617] was greater than 10 µM.
`COC(=O)c1cc(N)cc(Nc2ncc(F)c(Nc3cc(N)cc(C(=O)OC)c3)n2)c1` [Compound R950134] returned an IC50 of 6.46 µM.
Still for that read-out and setting: to `Oc1c(Cl)cc(Nc2ncc(F)c(Nc3cc(Cl)c(O)c(Cl)c3)n2)cc1Cl` [Compound R940215] belongs greater than 10 µM; to `O=C(O)c1cc2cc(Nc3ncc(F)c(Nc4cccc(O)c4)n3)ccc2[nH]1` [Compound R926479], greater than 10 µM; to `CCOC(=O)Cc1ccc(Nc2ncc(C#N)c(Nc3ccc(CC(=O)OCC)cc3)n2)cc1` [Compound R926662], greater than 10 µM.
The same measure, in the same setting: to `CC(C)Oc1ccc(Nc2nc(Nc3ccc(OCCO)cc3)ncc2F)cc1` [Compound R935160] belongs 2.37 µM.
